Results taken from PubChem BioAssay (NCI).
Values joined by “and” are separate entries in the source; they are usually repeats but may differ in a detail not shown here. Equal entries are not always repeated.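 Test compounds were applied to cells in 96-well plates for 48 hours at 5 doses. The concentration for 50% growth inhibition is given as GI50. TGI is the concentration that stops growth completely.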

Key:
Test in all cases: growth of human tumour cells (NCI), 48 h
A549 NSCLC = system: A549 NSCLC
CCRF-CEM leukemia = system: CCRF-CEM leukemia
DMS 273 small cell lung = system: DMS 273 small cell lung
HCC-2998 colon = system: HCC-2998 colon
IGROV1 ovarian = system: IGROV1 ovarian
M19-MEL melanoma = system: M19-MEL melanoma
NCI-H522 lung = system: NCI-H522 lung
OVCAR-3 ovarian = system: OVCAR-3 ovarian
SN12C renal = system: SN12C renal

| Compound | GI50 (A549 NSCLC) [µM] | TGI (A549 NSCLC) | GI50 (CCRF-CEM leukemia) [µM] | TGI (CCRF-CEM leukemia) | GI50 (DMS 273 small cell lung) [µM] | TGI (DMS 273 small cell lung) | GI50 (HCC-2998 colon) [µM] | TGI (HCC-2998 colon) | GI50 (IGROV1 ovarian) [µM] | TGI (IGROV1 ovarian) [µM] | GI50 (M19-MEL melanoma) [µM] | TGI (M19-MEL melanoma) | GI50 (NCI-H522 lung) [µM] | TGI (NCI-H522 lung) | GI50 (OVCAR-3 ovarian) [µM] | TGI (OVCAR-3 ovarian) [µM] | GI50 (SN12C renal) [µM] | TGI (SN12C renal) |
| --- | --- | --- | --- | --- | --- | --- | --- | --- | --- | --- | --- | --- | --- | --- | --- | --- | --- | --- |
| CCC[CH2][Ge]([CH2]CCC)([CH2]CCC)[O]C(=O)C(OC)c1ccccc1 (stereo not drawn) | > 36.9 | > 100 µM | 2.09 | > 100 µM | 17.6 | > 75.9 µM | 23.2 | 59 µM | > 74.7 | > 100 | 33.9 | > 100 µM | 16.3 | > 74.9 µM | 11.1 | > 70.2 | 46.4 | > 100 µM |
| Cc1ccc(C2(O)CC(c3ccc([N+](=O)[O-])o3)=NN2C(=O)COc2ccccc2Cl)cc1 (stereo not drawn) |  | > 100 µM |  | > 100 µM |  | > 100 µM |  | 38.3 µM |  | > 100 |  | 33.5 µM |  | > 48.4 µM |  | 19.9 |  | > 49.1 µM |
| NCCCC1NC(=O)/C(=C(O)/C=C/C2CCC[C@@H]2CC2SCCS2)C1=O (stereo partly drawn) |  | > 100 µM |  | > 100 µM |  | > 100 µM |  | > 100 µM |  | > 100 |  | > 100 µM |  | 98.4 µM |  | > 100 |  | > 100 µM |
| CCOC(=O)C(Cc1ccccc1)NC(=O)OC(C)(C)C (stereo not drawn) |  | > 100 µM |  | > 100 µM |  | > 100 µM |  | > 100 µM |  | > 100 |  | > 100 µM |  |  |  | > 100 |  | > 100 µM |
| Nc1ncnc2c(C3OC(CO)C(O)C3O)scc12 (stereo not drawn) |  | 1.46 µM and 5.46 µM |  | 4.88 µM and 1.56 µM |  | 0.151 µM and 0.11 µM |  | 0.121 µM and 0.277 µM | 0.0179 | 3.3 | 0.147 | 3.4 µM and 2.31 µM |  | 0.242 µM and 0.0939 µM |  | 0.0287 | 0.105 | 4.93 µM and 4.07 µM |
| Cc1ccccc1-c1c(N)nc(N)nc1C(=O)Nc1nccs1 |  | > 100 µM |  | > 100 µM |  | > 100 µM |  | > 100 µM |  | > 100 |  | > 100 µM |  | > 100 µM |  | > 100 |  | > 100 µM |
| CCC1(C(=O)OC)CCc2c(OC)ccc(OC)c2C1=O (stereo not drawn) |  | > 100 µM |  | > 100 µM |  | > 100 µM |  | > 100 µM |  | > 100 |  | > 100 µM |  | > 100 µM |  | > 100 |  | > 100 µM |
| O=C1[C@@H]2C3SC(c4ccccc43)[C@@H]2C(=O)N1c1ccccc1 |  | > 100 µM |  | > 100 µM |  | > 100 µM |  | > 100 µM |  | > 100 |  | > 100 µM |  | > 100 µM |  | > 100 |  | > 100 µM |
| O=C(CC(=O)Nc1ccccc1O)Nc1ccccc1O |  | 95.1 µM |  | > 100 µM |  | > 100 µM |  | > 100 µM |  | > 100 |  | 28.4 µM |  | 24.8 µM |  | 46 |  | 33.8 µM |
| COc1cc(C(=O)C/C(CCC(=O)Nc2ccc(Cl)cc2Cl)=N/NC(=O)C(N)=O)ccc1O |  | > 100 µM |  | > 100 µM |  | > 100 µM |  | > 100 µM |  | > 100 |  | > 100 µM |  | > 100 µM |  | > 100 |  | > 100 µM |
| CC(C)(C)OC(=O)NC1CCC[C@H]1O (stereo partly drawn) |  | > 100 µM |  | > 100 µM |  | > 100 µM |  | > 100 µM |  |  |  | > 100 µM |  | > 100 µM |  | > 100 |  | > 100 µM |
| O=C(/C=C/c1ccccc1O)c1cccnc1 |  | > 100 µM |  | > 100 µM |  | > 100 µM |  | > 100 µM |  | > 100 |  | > 100 µM |  | > 100 µM |  | > 100 |  | > 100 µM |
| Nc1ccc2c(c1)CC1c3ccccc3C(C2)c2ccccc21 |  | > 100 µM |  | > 100 µM |  | > 100 µM |  | > 100 µM |  | > 100 |  | > 100 µM |  | > 100 µM |  |  |  | > 100 µM |
| COc1cc2ccnc(-c3c4ccccc4c(N)c4c(OC)c(OC)ccc34)c2cc1OC |  | 17.3 µM |  | 14.2 µM |  | 3.47 µM |  | 8.86 µM |  | 14.5 |  | 13.7 µM |  | 15.9 µM |  |  |  | 14.1 µM |
| O=C(O)CCCCCO |  | > 100 µM |  | > 100 µM |  | > 100 µM |  | > 100 µM |  | > 100 |  | > 100 µM |  | > 100 µM |  | > 100 |  | > 100 µM |
| CCOC(=O)N1N=NC2C3OC(C[C@@]3(C#N)OC(C)=O)[C@H]21 (stereo partly drawn) |  | > 100 µM |  | > 100 µM |  | > 100 µM |  | > 100 µM |  | > 100 |  | > 100 µM |  | > 100 µM |  | > 100 |  | > 100 µM |
| Cc1ccc(S(=O)(=O)SCc2ccccc2CSS(=O)(=O)c2ccc(C)cc2)cc1 |  | > 100 µM |  |  |  | 44.2 µM |  | > 100 µM |  | > 100 |  | 60.3 µM |  | 22.8 µM |  | 43.7 |  | 33.6 µM |
| CC(=O)OC1C/C(C)=C/CCC(C)/C=C/C2(C)CCC(C(C)(C)O)C12 (stereo not drawn) |  | > 100 µM |  | > 100 µM |  | > 100 µM |  | > 100 µM |  | > 100 |  | 88.6 µM |  |  |  | > 100 |  | 96.4 µM |
